Consider two molecules from PMC12281475, “Mediator Kinase Inhibitor Selectivity and Activity in Colorectal Cancer” (ACS Chemical Biology, 2025).

The nature of series [1]: Plasma total concentration of compound (LC-MS/MS). The class given is in vivo, mice. Conditions: 6 h after final dose. On the procedure:
for 20 mins at room temperature. […]
and body weights recorded. […]
quantification and pharmacodynamic biomarker analyses. All samples were stored […]
Plasma homogenates were extracted with 3 equivalent volumes of methanol containing olomoucine (500 nM) as an internal standard. Extracts were quantified for […]
ranging from 2 nM to 50 000 nM) with 4 quality control samples (25, 250,2500, and 7500 nM in duplicate) included at the beginning and the end of the analytical run.
Plasma homogenates were measured by LC−MS/MS on a Waters TQS following a separation on a Waters Acquity BEH C18 column (50 mm × 2.1 mm; 1.7 μm) with conditions of 0.1% formic acid (mobile phase A) and methanol (mobile phase B). The column was equilibrated at initial condition of 95% A and 5% B, linear gradient over 3 min to 100% B, held over 1 min, followed by linear gradient back to 5% B over 0.1 min, […]
mode by multiple reaction monitoring, 412.17 > 376.40at 33 eV for compound 109, […]
Phospho-proteome analyses
Adherent COLO205 cells were washed with PBS and cells lysed using urea lysis buffer (9 M Urea, 20 mM HEPES, pH 8.0, 1 mM beta-glycerophosphate, 1 mM sodium vanadate, 2.5 mM sodium pyrophosphate) and stored at -80 °C prior to analysis. The supernatants were reduced with 100 mM DTT for 30 minutes at 55 °C, followed by alkylation with 50 mM iodoacetimide for 15 minutes at ambient temperature in the dark. […]

Series [2] relates to phospho-STAT1^SER727 in SW620 tumor xenografts. The experiment in a line: Tumor phospho-STAT1 SER727 relative to total STAT1, electrochemiluminescent ELISA. The following applies: 6 h after final dose. It counts as in vivo, mice.
In the next series the test system is SW620 cells. Put plainly: Tumour spheroid growth assay (CellTitre-Glo), SW620 parent and knockout clones. The class given is cell-based, human. The following applies: SW620 spheroids.
Setting [3] is: 14-20 days, 42 mg/kg p.o qd 5/7 days.

On to `Cn1ncc2cc(-c3cnc(N)c(Cl)c3N3CCC4(CCNC4=O)CC3)ccc21` [CCT251921], for which the “plasma total concentrations, parent versus knockout clones” value in series [1] (14-20 days, 42 mg/kg p.o qd 5/7 days, exception CDK8-KO-cl2 (p < 0.05)) was “no significant differences”. In series [1] (3 days, 42 mg/kg p.o. qd), the “plasma levels in parent versus individual knockout clones” value is “no significant difference”. In series [2] (setting [3]), the “tumor phospho-STAT1 SER727, CDK8/19 clones” value is “not”; the “tumor phospho-STAT1 SER727, parent, CDK19 and CDK8 clones” value is “significantly reduced”. Also, the “tumor phospho-STAT1 SER727 levels, CDK8 and CDK8/19 knockouts” value in series [2] (3 days, 42 mg/kg p.o. qd, except CDK8-KO-cl2 (p < 0.05)) is “no significant change”. Moreover, the “tumor phospho-STAT1 SER727 levels, parent and CDK19 clones” value in series [2] (3 days, 42 mg/kg p.o. qd, p < 0.0001) is reported as “significantly reduced”.

For the molecule `Cn1cc(-c2ccc(-c3cncc(Cl)c3N3CCC4(CCNC4=O)CC3)cc2)cn1` [CCT251545], in the series with SW620 cells, the “spheroid growth of CDK8 and double knockout clones” value is on record as “insensitive to treatment”; the “spheroid growth of CDK19 knockout clones” value is listed as “growth inhibition similar to the parental line”.
